From US11833156B2, “Heterocyclic compounds as pad inhibitors” (JUBILANT EPIPAD LLC, priority 2017, dated 2023)
Where a name gives a salt, the structure may show the parent alone.

Tests used:
PAD4 enzyme [1] = biological target: T1, PAD4 enzyme (Homo sapiens (Human), UniProt Q9UM07); assay: Ammonia Release Biochemical Assay (citrullination detected via ammonia release); details: PAD4 120 nM, substrate BAEE, 60-min preincubation, read-out: NH3 release
Method: Ammonia Release Biochemical Assay
Citrullination assay was detected via ammonia release. PAD4 enzyme was diluted to 120 nM in assay buffer (100 mM HEPES, 50 mM NaCl, 2 mM DDT, 0.6 mg/mL BSA, pH 7.4) added to wells containing various concentration of compound or DMSO vehicle (1% final) in black 384 well plate. Following a 60-min preincubation at room temperature, the reaction was initiated by the addition of substrate (1.5 mM BAEE in 200 mM HEPES, 50 mM NaCl, 350 uM CaCl2, 2 mM, pH 7.4). The reaction was stopped after 60 min by addition of stop/detection buffer containing 50 mM EDTA, 2.6 mM of o-phthaladehyde and 2.6 mM DTT. Assay was incubated at room temperature for 90 min before measuring fluorescence's (λex 405/λem 460 nm) on Tecan reader. IC50 was calculated using XL-fit software model 205. (Ref: Nat Chem Biol. 2015 March; 11(3):189-91).

PAD4 enzyme [2] = biological target: T1, PAD4 enzyme; assay: FP Binding Assay; details: for IC50: PAD4 1 uM, 10 nM fluorescein labelled probe JPAD-00085
Method: Binding of compounds with PAD4 enzyme was detected by FP assay. PAD4 enzyme was diluted to 1 uM in assay buffer (100 mM HEPES, 50 mM NaCl, 1 mM DTT, 5% Glycerol and 1 mM CHAPS) and added to wells containing various concentration of compounds or DMSO vehicle (1%) in a 384 well black plate. 10 nM of fluorescein labelled probe (JPAD-00085) was added to the plate. Assay plate was incubated for 60 minutes at room temperature before measuring FP reading at FP module (λex 485/λem 535 nm) on Pherastar. IC50 was calculated using XL-fit software model 205. (Ref: Nat Chem Biol. 2015 March; 11(3):189-91).

T1 sequence (Q9UM07 whole entry): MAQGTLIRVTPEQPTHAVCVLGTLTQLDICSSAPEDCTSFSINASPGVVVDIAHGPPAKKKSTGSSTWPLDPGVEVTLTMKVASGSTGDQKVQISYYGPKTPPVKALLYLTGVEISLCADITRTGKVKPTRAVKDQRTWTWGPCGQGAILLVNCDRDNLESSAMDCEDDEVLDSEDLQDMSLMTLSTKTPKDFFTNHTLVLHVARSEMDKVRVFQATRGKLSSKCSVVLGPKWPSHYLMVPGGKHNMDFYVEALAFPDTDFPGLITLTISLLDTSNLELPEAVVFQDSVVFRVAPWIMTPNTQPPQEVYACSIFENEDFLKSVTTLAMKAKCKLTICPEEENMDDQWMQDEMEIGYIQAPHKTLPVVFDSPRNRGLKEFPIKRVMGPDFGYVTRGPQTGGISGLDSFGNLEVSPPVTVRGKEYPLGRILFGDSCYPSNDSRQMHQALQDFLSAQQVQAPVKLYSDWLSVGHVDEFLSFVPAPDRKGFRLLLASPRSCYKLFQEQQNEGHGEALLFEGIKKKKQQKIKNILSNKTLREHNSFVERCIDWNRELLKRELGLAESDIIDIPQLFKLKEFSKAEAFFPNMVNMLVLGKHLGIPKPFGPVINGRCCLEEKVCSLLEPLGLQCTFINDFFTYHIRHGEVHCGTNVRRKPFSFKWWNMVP

Structure (SMILES)	IC50 (PAD4 enzyme [1])	IC50 (PAD4 enzyme [2])	inhibition of PAD4 enzyme activity in FP Binding assay (PAD4 enzyme [2])
N[C@@H]1CCCN(C(=O)c2cc3c4c(c2)nc(-c2cc5ccccc5n2Cc2ccccc2)n4CCO3)C1 [Example 18, (R)-(3-aminopiperidin-1-yl)(2-(1-benzyl-1H-indol-2-yl)-3,4-dihydro-5-oxa-1,2a-diazaacenaphthylen-7-yl)methanone]	≤ 1000 nM	1000 to 10000 nM	–
COc1ccc2cc(-c3nc4cc(C(=O)N5CCC[C@@H](N)C5)cc5c4n3CCN5)n(CC3CC3)c2c1 [Example 73, (R)-(3-aminopiperidin-1-yl)(2-(1-(cyclopropylmethyl)-6-methoxy-1H-indol-2-yl)-5,6-dihydro-4H-imidazo[1,5,4-de]quinoxalin-8-yl)methanone]	–	–	actively inhibiting PAD4 enzyme activity
CCn1c(-c2nc3cc(C(=O)N4CCC[C@@H](N)C4)cc4c3n2CCO4)cc2cccnc21 [Example 5, (R)-(3-aminopiperidin-1-yl)(2-(1-ethyl-1H-pyrrolo[2,3-b]pyridin-2-yl)-3,4-dihydro-5-oxa-1,2a-diazaacenaphthylen-7-yl)methanone]	1000 to 10000 nM	1000 to 10000 nM	–
N[C@@H]1CCCN(C(=O)c2cc3c4c(c2)nc(-c2cc5ccccc5n2CC2CC2)n4CCO3)C1 [Example 1, (R)-(3-aminopiperidin-1-yl)(2-(1-(cyclopropylmethyl)-1H-indol-2-yl)-3,4-dihydro-5-oxa-1,2a-diazaacenaphthylen-7-yl)methanone]	–	1000 to 10000 nM	–
CS(=O)(=O)N1CCn2c(-c3cc4ccccc4n3CC3CC3)nc3cc(C(=O)N4CCC[C@@H](N)C4)cc1c32 [Example 76, (R)-(3-aminopiperidin-1-yl)(2-(1-(cyclopropylmethyl)-1H-indol-2-yl)-6-(methylsulfonyl)-5,6-dihydro-4H-imidazo[1,5,4-de]quinoxalin-8-yl)methanone]	≤ 1000 nM	1000 to 10000 nM	–
N[C@@H]1CCCN(C(=O)c2cc3c4c(c2)nc(-c2cc5ccccc5n2Cc2cccnc2)n4CCN3)C1 [Example 66, (R)-(3-aminopiperidin-1-yl)(2-(1-(pyridin-3-ylmethyl)-1H-indol-2-yl)-5,6-dihydro-4H-imidazo [1,5,4-de]quinoxalin-8-yl)methanone]	≤ 1000 nM	1000 to 10000 nM	–
N[C@@H]1CCCN(C(=O)c2cc3c4c(c2)nc(-c2cc5ccccc5n2Cc2ccc(Cl)cc2)n4CCO3)C1 [Example 13, (R)-(3-aminopiperidin-1-yl)(2-(1-(4-chlorobenzyl)-1H-indol-2-yl)-3,4-dihydro-5-oxa-1,2a-diazaacenaphthylene-7-yl)methanone]	≤ 1000 nM	1000 to 10000 nM	–
N[C@@H]1CCCN(C(=O)c2cc3c4c(c2)nc(-c2cc5cc(F)ccc5n2CC2CC2)n4CCO3)C1 [Example 9, (R)-(3-aminopiperidin-1-yl)(2-(1-(cyclopropylmethyl)-5-fluoro-1H-indol-2-yl)-3,4-dihydro-5-oxa-1,2a-diazaacenaphthylen-7-yl)methanone]	≤ 1000 nM	≤ 1000 nM	–
CN1CCn2c(-c3cc4ccccc4n3CC3CC3)nc3cc(C(=O)N4CCC[C@@H](N)C4)cc1c32 [Example 72, (R)-(3-aminopiperidin-1-yl)(2-(1-(cyclopropylmethyl)-1H-indol-2-yl)-6-methyl-5,6-dihydro-4H-imidazo[1,5,4-de]quinoxalin-8-yl)methanone]	–	–	actively inhibiting PAD4 enzyme activity
N[C@@H]1CCCN(C(=O)c2cc3c4c(c2)nc(-c2cc5cc(F)c(F)cc5n2CC2CC2)n4CCN3)C1 [Example 77, (R)-(3-aminopiperidin-1-yl)(2-(1-(cyclopropylmethyl)-5,6-difluoro-1H-indol-2-yl)-5,6-dihydro-4H-imidazo[1,5,4-de]quinoxalin-8-yl)methanone]	–	–	actively inhibiting PAD4 enzyme activity
COc1ccc(Cn2c(-c3nc4cc(C(=O)N5CCC[C@@H](N)C5)cc5c4n3CCO5)cc3ccccc32)cc1 [Example 19, (R)-(3-aminopiperidin-1-yl)(2-(1-(4-methoxybenzyl)-1H-indol-2-yl)-3,4-dihydro-5-oxa-1,2a-diazaacenaphthylen-7-yl)methanone]	–	–	actively inhibiting PAD4 enzyme activity
CN(C)C/C=C/C(=O)N[C@@H]1CCCN(C(=O)c2cc3c4c(c2)nc(-c2cc5ccccc5n2CC2CC2)n4CCO3)C1 [Example 38, (R,E)-N-(1-(2-(1-(cyclopropylmethyl)-1H-indol-2-yl)-3,4-dihydro-5-oxa-1,2a-diazaacenaphthylene-7-carbonyl)piperidin-3-yl)-4-(dimethylamino)but-2-enamide trifluoroacetic acid salt]	≥ 10000 nM	–	–
N[C@@H]1CCN(C(=O)c2cc3c4c(c2)nc(-c2cc5ccccc5n2CC2CC2)n4CCCO3)C1 [Example 7, (R)-(3-aminopyrrolidin-1-yl)(1-(1-(cyclopropylmethyl)-1H-indol-2-yl)-8,9-dihydro-7H-6-oxa-2,9a-diazabenzo[cd]azulen-4-yl)methanone]	1000 to 10000 nM	–	–
N[C@@H]1CCCN(C(=O)c2cc3c4c(c2)nc(-c2cc5cccc(Cl)c5n2CC2CC2)n4CCO3)C1 [Example 57, (R)-(3-aminopiperidin-1-yl)(2-(7-chloro-1-(cyclopropylmethyl)-1H-indol-2-yl)-3,4-dihydro-5-oxa-1,2a-diazaacenaphthylen-7-yl)methanone]	≤ 1000 nM	–	–
COc1ccc(Cn2c(-c3nc4cc(C(=O)N5CCC[C@@H](N)C5)cc5c4n3CCO5)cc3ccc(F)cc32)cc1 [Example 50, (R)-(3-aminopiperidin-1-yl)(2-(6-fluoro-1-(4-methoxybenzyl)-1H-indol-2-yl)-3,4-dihydro-5-oxa-1,2a-diazaacenaphthylen-7-yl)methanone]	≤ 1000 nM	–	–
COc1ccc2cc(-c3nc4cc(C(=O)N5CCC[C@@H](N)C5)cc5c4n3CCO5)n(Cc3ncccc3F)c2c1 [Example 33, (R)-(3-aminopiperidin-1-yl)(2-(1-((3-fluoropyridin-2-yl)methyl)-6-methoxy-1H-indol-2-yl)-3,4-dihydro-5-oxa-1,2a-diazaacenaphthylen-7-yl)methanone]	≤ 1000 nM	–	–
N[C@@H]1CCCN(C(=O)c2cc3c4c(c2)nc(-c2cc5ccccc5n2CC2COC2)n4CCO3)C1 [Example 44, (R)-(3-aminopiperidin-1-yl)(2-(1-(oxetan-3-ylmethyl)-1H-indol-2-yl)-3,4-dihydro-5-oxa-1,2a-diazaacenaphthylen-7-yl)methanone]	1000 to 10000 nM	–	–
N[C@@H]1CCCN(C(=O)c2cc3c4c(c2)nc(-c2cc5ccccc5n2Cc2cccnn2)n4CCO3)C1 [Example 30, (R)-(3-aminopiperidin-1-yl)(2-(1-(pyridazin-3-ylmethyl)-1H-indol-2-yl)-3,4-dihydro-5-oxa-1,2a-diazaacenaphthylen-7-yl)methanone]	1000 to 10000 nM	–	–
N[C@@H]1CCCN(C(=O)c2cc3c4c(c2)nc(-c2cc5ccc(CO)cc5n2CC2CC2)n4CCO3)C1 [Example 61, (R)-(3-aminopiperidin-1-yl)(2-(1-(cyclopropylmethyl)-6-(hydroxymethyl)-1H-indol-2-yl)-3,4-dihydro-5-oxa-1,2a-diazaacenaphthylen-7-yl)methanone]	≤ 1000 nM	–	–
COCCn1c(-c2nc3cc(C(=O)N4CCC[C@@H](N)C4)cc4c3n2CCO4)cc2cc(F)ccc21 [Example 48, (R)-(3-aminopiperidin-1-yl)(2-(5-fluoro-1-(2-methoxyethyl)-1H-indol-2-yl)-3,4-dihydro-5-oxa-1,2a-diazaacenaphthylen-7-yl)methanone]	≤ 1000 nM	–	–
N[C@@H]1CCCN(C(=O)c2cc3c4c(c2)nc(-c2cc5ccccc5n2Cc2ccncc2F)n4CCO3)C1 [Example 24, (R)-(3-aminopiperidin-1-yl)(2-(1-((3-fluoropyridin-4-yl)methyl)-1H-indol-2-yl)-3,4-dihydro-5-oxa-1,2a-diazaacenaphthylen-7-yl)methanone]	≤ 1000 nM	–	–
N[C@@H]1CCCN(C(=O)c2cc3c4c(c2)nc(-c2cc5ccc(F)cc5n2CC2CC2)n4CCO3)C1 [Example 28, (R)-(3-aminopiperidin-1-yl)(2-(1-(cyclopropylmethyl)-6-fluoro-1H-indol-2-yl)-3,4-dihydro-5-oxa-1,2a-diazaacenaphthylen-7-yl)methanone]	≤ 1000 nM	–	–
N[C@@H]1CCCN(C(=O)c2cc3c4c(c2)nc(-c2cc5ccccc5n2CC2CC2)n4CCCO3)C1 [Example 6, (R)-(3-aminopiperidin-1-yl)(1-(1-(cyclopropylmethyl)-1H-indol-2-yl)-8,9-dihydro-7H-6-oxa-2,9a-diazabenzo[cd]azulen-4-yl)methanone]	1000 to 10000 nM	–	–
CC(C)Cn1c(-c2nc3cc(C(=O)N4CCC[C@@H](N)C4)cc4c3n2CCO4)cc2cccc(Cl)c21 [Example 55, (R)-(3-aminopiperidin-1-yl)(2-(7-chloro-1-isobutyl-1H-indol-2-yl)-3,4-dihydro-5-oxa-1,2a-diazaacenaphthylen-7-yl)methanone]	≤ 1000 nM	–	–
